From patent publication US10538555B2, “Macrocyclic inhibitors of the PD-1/PD-L1 and CD80(B7-1)/PD-L1 protein/protein interactions” (BRISTOL-MYERS SQUIBB COMPANY, priority 2014, dated 2020) come the findings set out here.

Read-outs that look alike come from different tables or passages of the source. *1 amine or outer side, *2 acyl side, *3 side chain or, on linkers, in order; H or OH if unused. Where a SMILES comes first, the peptide text is derived from it. Bridges are numbered along the chain shown (N, C = ends). [ ]: non-standard residue; d: D form. Phe(3,4,5-F3) = N[C@@H](Cc1cc(F)c(F)c(F)c1)C(=O)O; d(cisHyp) = O=C(O)[C@H]1C[C@@H](O)CN1; NMeF = CN[C@@H](Cc1ccccc1)C(=O)O; X1 = O=C([C@H]1COCCN1[*:1])[*:2]; dPip(4-aza) = O=C(O)[C@H]1CNCCN1; NMeNle = CCCC[C@H](NC)C(=O)O; hSer = N[C@@H](CCO)C(=O)O; Orn = NCCC[C@H](N)C(=O)O

In the assay the target is T1, Human PD-L1/PD-1 (Homo sapiens, UniProt Q9NZQ7).
T1 construct: TVMV protease cleavage site (C); made in house; host or cells: HEK293T cells
T1 sequence (Q9NZQ7 with tags, fused parts or gaps): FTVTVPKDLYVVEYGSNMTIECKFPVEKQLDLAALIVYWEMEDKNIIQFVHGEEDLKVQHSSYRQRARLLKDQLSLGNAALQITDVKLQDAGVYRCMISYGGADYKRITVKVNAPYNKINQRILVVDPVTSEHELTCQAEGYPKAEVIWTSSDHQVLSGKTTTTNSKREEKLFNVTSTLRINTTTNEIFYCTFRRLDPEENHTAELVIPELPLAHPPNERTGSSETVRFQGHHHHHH
Kind of assay: HTRF Human PD-L1/PD-1 binding assay (PD-1-Ig/PD-L1-His). The conditions noted are these: PD-L1-His 10 nM, PD-1-Ig 20 nM. A digest of the protocol: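 Soluble HEK293T-expressed proteins: hPD-L1-His 10 nM, hPD-1-Ig 20 nM final. Cpd + PD-L1 15 min, + PD-1 15 min, + Eu anti-Ig 1 nM/APC anti-His 20 nM 30 min. Buffer dPBS, 0.1% BSA, 0.05% Tween-20. TR-FRET 665/620.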

The mark [1] stands for this setting: class symbol, read-out: HTRF Human PD-L1/PD-1 Binding Assay IC50 Range.

Turning to `CCCC[C@H]1C(=O)N2C[C@H](O)C[C@@H]2C(=O)N[C@@H](CC(=O)O)C(=O)N[C@@H](C(C)C)C(=O)N(C)[C@@H](Cc2ccccc2)C(=O)N[C@@H](CCC(=O)O)C(=O)N2CCC[C@@H]2C(=O)N[C@@H](Cc2c[nH]c3ccccc23)C(=O)N[C@@H](Cc2ccc(O)cc2)C(=O)N[C@@H](CCO)C(=O)N[C@H](C(=O)NCC(N)=O)CSCC(=O)N[C@@H](Cc2cc(F)c(F)c(F)c2)C(=O)N(C)[C@@H](Cc2ccccc2)C(=O)N1C` [Example 10154] ({CH2CO}-[Phe(3,4,5-F3)][NMeF][NMeNle][d(cisHyp)]DV[NMeF]E[dP]WY[hSer]CG-NH2; thioether N-13), under setting [1], the IC50 fell in the range of 1 to 9.9 nM. Same read-out and setting: the figure for `CCCC[C@H]1C(=O)N2C[C@H](O)C[C@@H]2C(=O)N[C@@H](CC(=O)O)C(=O)N[C@@H](C(C)C)C(=O)N(C)[C@@H](Cc2ccccc2)C(=O)N[C@@H](CC(=O)O)C(=O)N2CCC[C@@H]2C(=O)N[C@@H](Cc2c[nH]c3ccccc23)C(=O)N[C@@H](Cc2ccc(O)cc2)C(=O)N[C@@H](CCO)C(=O)N[C@H](C(=O)NCC(N)=O)CSCC(=O)N[C@@H](Cc2cc(F)c(F)c(F)c2)C(=O)N(C)[C@@H](Cc2ccccc2)C(=O)N1C` [Example 10155] ({CH2CO}-[Phe(3,4,5-F3)][NMeF][NMeNle][d(cisHyp)]DV[NMeF]D[dP]WY[hSer]CG-NH2; thioether N-13) is 1 to 9.9 nM. As for `CCCC[C@H]1C(=O)N2C[C@H](O)C[C@@H]2C(=O)N[C@@H](CC(=O)O)C(=O)N[C@@H](C(C)C)C(=O)N(C)[C@@H](Cc2ccccc2)C(=O)N[C@@H](CCC(=O)O)C(=O)N2CCOC[C@@H]2C(=O)N[C@@H](Cc2c[nH]c3ccccc23)C(=O)N[C@@H](Cc2ccc(O)cc2)C(=O)N[C@@H](CCO)C(=O)N[C@H](C(=O)NCC(N)=O)CSCC(=O)N[C@@H](Cc2cc(F)c(F)c(F)c2)C(=O)N(C)[C@@H](Cc2ccccc2)C(=O)N1C` [Example 10156] ({CH2CO}-[Phe(3,4,5-F3)][NMeF][NMeNle][d(cisHyp)]DV[NMeF]E[X1]WY[hSer]CG-NH2; thioether N-13), the IC50 under setting [1] fell in the range of 1 to 9.9 nM. On to `CCCC[C@H]1C(=O)N2C[C@H](O)C[C@@H]2C(=O)N[C@@H](CC(=O)O)C(=O)N[C@@H](C(C)C)C(=O)N(C)[C@@H](Cc2ccccc2)C(=O)N[C@@H](CC(=O)O)C(=O)N2CCOC[C@@H]2C(=O)N[C@@H](Cc2c[nH]c3ccccc23)C(=O)N[C@@H](Cc2ccc(O)cc2)C(=O)N[C@@H](CCO)C(=O)N[C@H](C(=O)NCC(N)=O)CSCC(=O)N[C@@H](Cc2cc(F)c(F)c(F)c2)C(=O)N(C)[C@@H](Cc2ccccc2)C(=O)N1C` [Example 10157] ({CH2CO}-[Phe(3,4,5-F3)][NMeF][NMeNle][d(cisHyp)]DV[NMeF]D[X1]WY[hSer]CG-NH2; thioether N-13), for which the IC50 (read-out: HTRF Human PD-L1/PD-1 Binding Assay IC50) is 4.1 nM. In the case of `CCCC[C@H]1C(=O)N2C[C@H](O)C[C@@H]2C(=O)N[C@@H](CC(=O)O)C(=O)N[C@@H](C(C)C)C(=O)N(C)[C@@H](Cc2ccccc2)C(=O)N[C@@H](CCCN)C(=O)N2CCOC[C@@H]2C(=O)N[C@@H](Cc2c[nH]c3ccccc23)C(=O)N[C@@H](Cc2ccc(O)cc2)C(=O)N[C@@H](CCO)C(=O)N[C@H](C(=O)NCC(N)=O)CSCC(=O)N[C@@H](Cc2cc(F)c(F)c(F)c2)C(=O)N(C)[C@@H](Cc2ccccc2)C(=O)N1C` [Example 10158] ({CH2CO}-[Phe(3,4,5-F3)][NMeF][NMeNle][d(cisHyp)]DV[NMeF][Orn][X1]WY[hSer]CG-NH2; thioether N-13), under setting [1], the IC50 lay within 1 to 9.9 nM. On to `CCCC[C@H]1C(=O)N2C[C@H](O)C[C@@H]2C(=O)N[C@@H](CC(=O)O)C(=O)N[C@@H](C(C)C)C(=O)N(C)[C@@H](Cc2ccccc2)C(=O)N[C@@H](Cc2ccc(O)cc2)C(=O)N2CCOC[C@@H]2C(=O)N[C@@H](Cc2c[nH]c3ccccc23)C(=O)N[C@@H](Cc2ccc(O)cc2)C(=O)N[C@@H](CCO)C(=O)N[C@H](C(=O)NCC(N)=O)CSCC(=O)N[C@@H](Cc2cc(F)c(F)c(F)c2)C(=O)N(C)[C@@H](Cc2ccccc2)C(=O)N1C` [Example 10159] ({CH2CO}-[Phe(3,4,5-F3)][NMeF][NMeNle][d(cisHyp)]DV[NMeF]Y[X1]WY[hSer]CG-NH2; thioether N-13), for which the IC50 under setting [1] was in the range of 1 to 9.9 nM. For `CCCC[C@H]1C(=O)N2C[C@H](O)C[C@@H]2C(=O)N[C@@H](CC(=O)O)C(=O)N[C@@H](C(C)C)C(=O)N(C)[C@@H](Cc2ccccc2)C(=O)N[C@@H](Cc2ccc(O)cc2)C(=O)N2CCOC[C@@H]2C(=O)N[C@@H](Cc2c[nH]c3ccccc23)C(=O)N[C@@H](Cc2ccc(O)cc2)C(=O)N[C@@H](CCOC)C(=O)N[C@H](C(=O)NCC(N)=O)CSCC(=O)N[C@@H](Cc2cc(F)c(F)c(F)c2)C(=O)N(C)[C@@H](Cc2ccccc2)C(=O)N1C` [Example 10160] ({CH2CO}-[Phe(3,4,5-F3)][NMeF][NMeNle][d(cisHyp)]DV[NMeF]Y[X1]WY[hSer](Me)CG-NH2; thioether N-13), under setting [1], the IC50 lay within 1 to 9.9 nM. Same read-out and setting: the value for `CCCC[C@H]1C(=O)N2C[C@H](O)C[C@@H]2C(=O)N[C@@H](CC(=O)O)C(=O)N[C@@H](C(C)C)C(=O)N(C)[C@@H](Cc2ccccc2)C(=O)N[C@@H](CC(=O)O)C(=O)N2CCOC[C@@H]2C(=O)N[C@@H](Cc2c[nH]c3ccccc23)C(=O)N[C@@H](Cc2ccc(O)cc2)C(=O)N[C@@H](CCOC)C(=O)N[C@H](C(=O)NCC(N)=O)CSCC(=O)N[C@@H](Cc2cc(F)c(F)c(F)c2)C(=O)N(C)[C@@H](Cc2ccccc2)C(=O)N1C` [Example 10161] ({CH2CO}-[Phe(3,4,5-F3)][NMeF][NMeNle][d(cisHyp)]DV[NMeF]D[X1]WY[hSer](Me)CG-NH2; thioether N-13) was 1 to 9.9 nM; that for `CCCC[C@H]1C(=O)N2C[C@H](O)C[C@@H]2C(=O)N[C@@H](CC(=O)O)C(=O)N[C@@H](C(C)C)C(=O)N(C)[C@@H](Cc2ccccc2)C(=O)N[C@@H](CCCN)C(=O)N2CCOC[C@@H]2C(=O)N[C@@H](Cc2c[nH]c3ccccc23)C(=O)N[C@@H](Cc2ccc(O)cc2)C(=O)N[C@@H](CCOC)C(=O)N[C@H](C(=O)NCC(N)=O)CSCC(=O)N[C@@H](Cc2cc(F)c(F)c(F)c2)C(=O)N(C)[C@@H](Cc2ccccc2)C(=O)N1C` [Example 10162] ({CH2CO}-[Phe(3,4,5-F3)][NMeF][NMeNle][d(cisHyp)]DV[NMeF][Orn][X1]WY[hSer](Me)CG-NH2; thioether N-13) was 1 to 9.9 nM; that for `CCCC[C@H]1C(=O)N2C[C@H](O)C[C@@H]2C(=O)N[C@@H](CC(=O)O)C(=O)N[C@@H](C(C)C)C(=O)N(C)[C@@H](Cc2ccccc2)C(=O)N[C@@H](CCC(=O)O)C(=O)N2CCNC[C@@H]2C(=O)N[C@@H](Cc2c[nH]c3ccccc23)C(=O)N[C@@H](Cc2ccc(O)cc2)C(=O)N[C@@H](CC(C)C)C(=O)N[C@H](C(=O)NCC(N)=O)CSCC(=O)N[C@@H](Cc2cc(F)c(F)c(F)c2)C(=O)N(C)[C@@H](Cc2ccccc2)C(=O)N1C` [Example 10163] ({CH2CO}-[Phe(3,4,5-F3)][NMeF][NMeNle][d(cisHyp)]DV[NMeF]E[dPip(4-aza)]WYLCG-NH2; thioether N-13) was 10 to 99.9 nM. Still for that read-out and setting: the figure for `CCCC[C@H]1C(=O)N2C[C@H](O)C[C@@H]2C(=O)N[C@@H](CC(=O)O)C(=O)N[C@@H](C(C)C)C(=O)N(C)[C@@H](Cc2ccccc2)C(=O)N[C@@H](CCC(=O)O)C(=O)N2CCNC[C@@H]2C(=O)N[C@@H](Cc2c[nH]c3ccccc23)C(=O)N[C@@H](Cc2ccc(O)cc2)C(=O)N[C@@H](CCCCN)C(=O)N[C@H](C(=O)NCC(N)=O)CSCC(=O)N[C@@H](Cc2cc(F)c(F)c(F)c2)C(=O)N(C)[C@@H](Cc2ccccc2)C(=O)N1C` [Example 10164] ({CH2CO}-[Phe(3,4,5-F3)][NMeF][NMeNle][d(cisHyp)]DV[NMeF]E[dPip(4-aza)]WYKCG-NH2; thioether N-13) is 1 to 9.9 nM.
